The text below walks through data of patent US20190105367A1, “ANTIMICROBIAL 4-OXOQUINOLIZINES” (Emergent Product Development Gaithersburg Inc., priority 2011, published 2019).

In brackets after ≈: the same amount, converted by molar mass.

The test system of one assay is E. faecium 19434. Nature of the assay: MIC, standard panel of Gram-positive and Gram-negative strains (Example 2). Particulars: Enterococcus faecium. It is filed as cell-based.
For another assay, the system named is S. pneumoniae 1027. The assay can be described thus: MIC, panel of quinolone-resistant strains (Example 2). It is filed as cell-based. The note with it: Streptococcus pneumoniae, LEV R.
For assay [1], the system named is GN48 Klebsiella pneumoniae NCTC 13443 NDM-1-β-lactamase producing isolate. The assay can be described thus: Chequerboard synergy with polymyxin B, FICI (Example 6). It is filed as cell-based. Particulars: for FICI / Synergy: combination with polymyxin B; for Combination drug concentration in combination: in combination with polymyxin B; for Polymyxin B MIC in combination: polymyxin B with the named antibiotic. The essentials: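 Broth microdilution chequerboard per CLSI in cation-adjusted Mueller-Hinton broth II; doubling dilutions spanning ≥2 above to 4 below each agent's MIC, polymyxin B fixed at 0.008–8 mg/L (0.004–4 mg/L for GN31). FICI summed from each agent's combination MIC over its MIC alone.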

A further assay has as its system S. epidermis 12228. Nature of the assay: MIC, standard panel of Gram-positive and Gram-negative strains (Example 2). Particulars: Staphylococcus. The format is cell-based, Staphylococcus epidermis.
The next assay has as its system E. coli IMP. The assay can be described thus: microbe, parasite or virus in culture. The note with it: Escherichia coli, read-out: MIC E. coli IMP.
In another assay the test system is P. aeruginosa 27853. The assay can be described thus: MIC, standard panel of Gram-positive and Gram-negative strains (Example 2). It is filed as cell-based. Particulars: Pseudomonas aeruginosa.
A further assay relates to E. coli 25922. Described as above. It is filed as cell-based. The note with it: Escherichia coli.
The next assay has as its system S. aureus ATCC 25923. The assay can be described thus: MIC, selected panel of bacterial strains (Example 5). The format is cell-based, Staphylococcus aureus. Particulars: Staphylococcus aureus, ATCC25923; read-out: MICs against Gram positive bacteria S. aureus ATCC 25923.
The next assay has as its system A. baumannii A489. The assay can be described thus: MIC determination for Acinetobacter strains (Example 3). The format is cell-based, Acinetobacter baumannii. Particulars: LEV R, CIP R, MRP R, IMP R, AMK R, TET R.
For another assay, the system named is A. baumannii A472. The description is as above. The format is cell-based, Acinetobacter baumannii. The note with it: LEV R, CIP R, MRP I, IMP I, AMK R, TET R.
The next assay deals with A. baumannii A390. The description is as above. The format is cell-based, Acinetobacter baumannii. The note with it: LEV R, CIP R, MRP R, IPM I, AMK R, TET I.
In a further assay the test system is A. baumannii A473. The assay is described as above. The format is cell-based, Acinetobacter baumannii. Particulars: LEV R, CIP R, MRP R, IMP R, AMK R, TET R.
The next assay relates to A. baumannii A329. Described as above. It is filed as cell-based, Acinetobacter baumannii. Particulars: LEV R, CIP R, MRP R, IMP R, AMK R, TET R.
The subject of the next assay is A. baumannii A401. The description is as above. It is filed as cell-based, Acinetobacter baumannii. Particulars: LEV R, CIP R, AMK R, TET R.
The subject of the next assay is A. baumannii J2. The assay is described as above. The format is cell-based, Acinetobacter baumannii. The note with it: LEV R, CIP R.
The test system of a further assay is A. baumannii ATCC 19606. The description is as above. The note with it: reference strain. It is filed as cell-based, Acinetobacter baumannii.
For assay [2], the system named is Acinetobacter spp. H064200250. Described as above. The format is cell-based, Acinetobacter sp. The note with it: LEV R, CIP R, MRP R, IMP I.
A further assay deals with A. baumannii A387. The assay is described as above. The format is cell-based, Acinetobacter baumannii. The note with it: LEV I, CIP R, IPM R, AMK R, TET R.
Assay [3] concerns GN56 Acinetobacter baumannii. The assay can be described thus: Pre-chequerboard MIC for synergy study (Example 6). The format is cell-based. Particulars: levofloxacin resistant clinical isolate. An excerpt: (§1) A chequerboard technique was used to identify possible synergistic or antagonistic interactions between the 4-oxoquinolizines compounds, levofloxacin and polymyxin B. Levofloxacin was included as a control. […] Final dilutions were made in Mueller-Hinton broth, the specific test medium used for MIC determinations according to CLSI guidelines (CLSI. Methods for Dilution Antimicrobial Susceptibility Tests for Bacteria That Grow Aerobically; Approved Standard-Eighth Edition (2009). CLSI Document M07-A8. CLSI, Wayne, Pa. 19087-1898, USA.). The test medium used was a cation-adjusted Mueller-Hinton Broth II (Becton Dickinson UK Ltd., Oxford Science Park, Oxford, UK, OX4 4DQ).
(§2) The compounds 2, 33 and 35, as well as levofloxacin were tested in combination with polymyxin B on the following isolates: GN31 Acinetobacter baumannii—antibiotic susceptible clinical isolate, GN52 Acinetobacter baumannii—levofloxacin resistant clinical isolate, GN56 Acinetobacter baumannii—levofloxacin resistant clinical isolate, GN48 Klebsiella pneumoniae—NCTC 13443—NDM-1-metallo-β-lactamase and GN10 Pseudomonas aeruginosa—ATCC 27853—antibiotic susceptible reference isolate. All isolates are from the collection maintained at Quotient Bioresearch Ltd., Cambridge, UK.
(§3) The MIC values for the compounds and polymyxin B and levofloxacin were determined by broth microdilution following CLSI guidelines, and the MICs of agents in combination were determined as described by Pillai et. al (Pillai S K, Moellering R C Jr, Eliopoulis G M; Antimicrobial Combinations in Antibiotics in Laboratory Medicine 5th Edition (V. Lorian Ed) (2005) p 365-440). Initial MIC results were used to determine the microtiter plate patterns for the chequerboards. A suitable doubling dilution concentration range was selected such that the combination antibiotic range was at least two concentrations above and four concentrations below the MIC for each isolate. A fixed range of 0.008 to 8 mg/L was tested for polymyxin B except in the case of A. baumannii GN31 where a range of 0.004 to 4 mg/L was tested when in combination with the compounds 2, 33 and 35 as well as levofloxacin.

The test system of assay [4] is GN48 Klebsiella pneumoniae. Nature of the assay: Pre-chequerboard MIC for synergy study (Example 6). It is filed as cell-based. The note with it: NCTC 13443, NDM-1.
Text: as §1, §2, §3

The test system of assay [5] is GN10 Pseudomonas aeruginosa. The assay can be described thus: Pre-chequerboard MIC for synergy study (Example 6). The format is cell-based. Particulars: ATCC 27853, antibiotic susceptible.
Text: as §1, §2, §3

The test system of assay [6] is GN52 Acinetobacter baumannii. Nature of the assay: Pre-chequerboard MIC for synergy study (Example 6). It is filed as cell-based. The note with it: levofloxacin resistant clinical isolate.
Text: as §1, §2, §3

The test system of assay [7] is GN31 Acinetobacter baumannii. The assay can be described thus: Pre-chequerboard MIC for synergy study (Example 6). The format is cell-based. The note with it: antibiotic susceptible clinical isolate.
Text: as §1, §2, §3

As for `Cc1c(-c2cc(F)c(N)cc2F)ccn2c(=O)c(C(=O)O)cc(C3CC3)c12` [Compound 2, 8-(4-amino-2,5-difluorophenyl)-1-cyclopropyl-9-methyl-4-oxo-4H-quinolizine-3-carboxylic acid], the MIC in the assay on E. faecium 19434 came out at 0.5 µg/mL (≈ 1.35 µM). Further, the MIC in the assay with S. pneumoniae 1027 was determined as 0.5 µg/mL (≈ 1.35 µM). For the same compound, in [1], the “Combination drug MIC alone” value came to 32 µg/mL, the FICx turned out to be 0.13, the FICy was found to be 0.50 and the FICI was determined as 0.63. Further, in assay [1], the Synergy result is “Partial synergy (partial synergy/addition (FICI 0.51 to 0.75))”, the “Combination drug concentration in combination” value is on record as 4 mg/L and the “Polymyxin B MIC in combination” value was found to be 0.25 µg/mL. Besides, the Synergy entry in assay [1] (listed as compound 2) is given as “partial synergy”.
Consider `Cc1c(-c2cc(Cl)c(N)c(Cl)c2)ccn2c(=O)c(C(=O)O)cc(C3CC3)c12` [Compound 3, 8-(3,5-dichloro-4-amino-phenyl)-1-cyclopropyl-9-methyl-4-oxo-quinolizine-3-carboxylic acid], for which the MIC was determined as 0.008 µg/mL (≈ 0.0198 µM) in the assay with S. epidermis 12228, 0.5 µg/mL (≈ 1.24 µM) against E. faecium 19434 and 0.06 µg/mL (≈ 0.149 µM) with E. coli IMP.
As to `Cc1c(-c2ccc(CN)c(F)c2)ccn2c(=O)c(C(=O)O)cc(C3CC3)c12` [Compound 4, 8-(3-fluoro-4-aminomethyl-phenyl)-1-cyclopropyl-9-methyl-4-oxo-quinolizine-3-carboxylic acid], the figures for the MIC with S. epidermis 12228 and in the assay on P. aeruginosa 27853 were 0.06 µg/mL (≈ 0.164 µM) and 0.5 µg/mL (≈ 1.36 µM), respectively.
For `Cc1c(-c2ccc(CN)cc2)ccn2c(=O)c(C(=O)O)cc(C3CC3)c12` [Compound 5, 8-(4-aminomethyl-phenyl)-1-cyclopropyl-9-methyl-4-oxo-quinolizine-3-carboxylic acid], in that order: 0.06 µg/mL (≈ 0.172 µM) and 0.5 µg/mL (≈ 1.44 µM).
With `Cc1c(-c2ccc(CN)cc2)c(F)cn2c(=O)c(C(=O)O)cc(C3CC3)c12` [Compound 6, 8-(4-aminomethyl-phenyl)-1-cyclopropyl-7-fluoro-9-methyl-4-oxo-quinolizine-3-carboxylic acid], the MIC in the assay with S. epidermis 12228 and with E. coli IMP was 0.03 µg/mL (≈ 0.0819 µM) in each case.
In the assay on E. coli 25922, `Cc1c(-c2ccc(N)cc2)c(F)cn2c(=O)c(C(=O)O)cc(C3CC3)c12` [Compound 7, 8-(4-amino-phenyl)-1-cyclopropyl-7-fluoro-9-methyl-4-oxo-quinolizine-3-carboxylic acid] came in with an MIC of 0.03 µg/mL (≈ 0.0851 µM).
As for `Cc1c(-c2ccc(N)cc2)ccn2c(=O)c(C(=O)O)cc(C3CC3)c12` [Compound 8, 8-(4-amino-phenyl)-1-cyclopropyl-9-methyl-4-oxo-quinolizine-3-carboxylic acid], the MIC turned out to be 0.03 µg/mL (≈ 0.0897 µM) against E. coli 25922 and 0.5 µg/mL (≈ 1.5 µM) against E. faecium 19434.
With `C[C@H]1COc2c(N3CCN(C)CC3)c(F)cc3c(=O)c(C(=O)O)cn1c23` [Levofloxacin, reference compound], in [1], the “Combination drug MIC alone” value was 64 µg/mL, the FICx came to 0.13, the FICy stood at 1.00 and the FICI turned out to be 1.13. Besides, in assay [1], the Synergy result is “Indifferent (indifference (FICI 0.76 to 2.75))”, the “Combination drug concentration in combination” value was found to be 8 mg/L and the “Polymyxin B MIC in combination” value amounted to 0.5 µg/mL. In the assay with S. aureus ATCC 25923, the MIC was found to be 0.125 µg/mL (≈ 0.346 µM).
For the compound Imipenem/cilastatin, the “MIC A. baumannii A489” value in the assay with A. baumannii A489 stood at 128 µg/mL. Further, the “MIC A. baumannii A472” value in the assay on A. baumannii A472 is 16 µg/mL. Further, the “MIC A. baumannii A390” value against A. baumannii A390 is 16 µg/mL. Besides, in the assay with A. baumannii A473, the “MIC A. baumannii A473” value was 32 µg/mL. Besides, in the assay with A. baumannii A329, the “MIC A. baumannii A329” value worked out at 128 µg/mL. Further, in the assay on A. baumannii A401, the “MIC A baumannii A401” value stood at 32 µg/mL. In the assay with A. baumannii J2, the “MIC A. baumannii J2” value was 4 µg/mL. Besides, the “MIC A. baumannii ATCC 19606” value against A. baumannii ATCC 19606 stood at 2 µg/mL. For the same compound, the “MIC Acinetobacter spp. H064200250” value in assay [2] was 16 µg/mL. Moreover, the “MIC A. baumannii A387” value with A. baumannii A387 stood at 16 µg/mL.
With Polymyxin B [reference compound], in [3], the “Pre-chequerboard MIC GN56 Acinetobacter baumannii” value was determined as 0.5 µg/mL. Further, the “Pre-chequerboard MIC GN48 Klebsiella pneumoniae” value in [4] was determined as 1 µg/mL. In addition, the “Pre-chequerboard MIC GN10 Pseudomonas aeruginosa” value in [5] was determined as 1 µg/mL. In assay [6], the “Pre-chequerboard MIC GN52 Acinetobacter baumannii” value came out at 0.5 µg/mL. In addition, the “Pre-chequerboard MIC GN31 Acinetobacter baumannii” value in [7] was found to be 0.5 µg/mL. Also, the “Polymyxin B MIC alone” value in assay [1] worked out at 0.5 µg/mL.
